In ChEMBL document CHEMBL5291721, “A preclinical secondary pharmacology resource illuminates target-adverse drug reaction associations of marketed drugs” (Nat Commun, 2023) one finds AC50 data, which are given here for 33 compounds.

In one assay the target is D(1A) dopamine receptor (Homo sapiens, UniProt P21728).
Assay [1] addresses T1, Thromboxane A2 receptor (Homo sapiens, UniProt P21731).
T1 sequence (P21731 whole entry): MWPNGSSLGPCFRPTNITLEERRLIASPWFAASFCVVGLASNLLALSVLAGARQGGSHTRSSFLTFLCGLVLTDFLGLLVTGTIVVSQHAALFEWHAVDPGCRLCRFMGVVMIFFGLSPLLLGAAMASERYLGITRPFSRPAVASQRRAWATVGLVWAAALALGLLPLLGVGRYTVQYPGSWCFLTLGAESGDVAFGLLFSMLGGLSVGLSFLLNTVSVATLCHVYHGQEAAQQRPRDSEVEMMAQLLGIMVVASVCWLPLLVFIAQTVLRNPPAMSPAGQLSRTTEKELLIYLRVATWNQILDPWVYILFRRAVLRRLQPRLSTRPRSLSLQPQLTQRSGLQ
In kind it is functional, cell-based.

In assay [2] the target is T1, Thromboxane A2 receptor. It counts as functional.
For assay [3], the target named is T2, Peroxisome proliferator-activated receptor alpha (Homo sapiens, UniProt Q07869).
T2 sequence (Q07869 whole entry): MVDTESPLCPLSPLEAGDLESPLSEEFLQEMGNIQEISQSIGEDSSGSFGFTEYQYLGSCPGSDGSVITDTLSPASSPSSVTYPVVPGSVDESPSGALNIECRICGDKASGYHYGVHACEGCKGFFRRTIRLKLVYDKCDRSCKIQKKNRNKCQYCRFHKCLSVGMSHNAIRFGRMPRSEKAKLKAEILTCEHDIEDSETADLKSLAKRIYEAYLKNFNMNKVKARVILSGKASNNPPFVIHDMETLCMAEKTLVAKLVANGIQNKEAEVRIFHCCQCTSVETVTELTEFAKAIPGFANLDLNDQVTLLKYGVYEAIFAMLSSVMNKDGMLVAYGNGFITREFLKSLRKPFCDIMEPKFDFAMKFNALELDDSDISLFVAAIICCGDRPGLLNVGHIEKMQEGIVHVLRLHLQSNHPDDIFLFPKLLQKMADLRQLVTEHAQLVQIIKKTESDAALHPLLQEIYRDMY
It counts as functional.

The target in assay [4] is T3, Bile acid receptor (Homo sapiens, UniProt Q96RI1).
T3 sequence (Q96RI1 whole entry): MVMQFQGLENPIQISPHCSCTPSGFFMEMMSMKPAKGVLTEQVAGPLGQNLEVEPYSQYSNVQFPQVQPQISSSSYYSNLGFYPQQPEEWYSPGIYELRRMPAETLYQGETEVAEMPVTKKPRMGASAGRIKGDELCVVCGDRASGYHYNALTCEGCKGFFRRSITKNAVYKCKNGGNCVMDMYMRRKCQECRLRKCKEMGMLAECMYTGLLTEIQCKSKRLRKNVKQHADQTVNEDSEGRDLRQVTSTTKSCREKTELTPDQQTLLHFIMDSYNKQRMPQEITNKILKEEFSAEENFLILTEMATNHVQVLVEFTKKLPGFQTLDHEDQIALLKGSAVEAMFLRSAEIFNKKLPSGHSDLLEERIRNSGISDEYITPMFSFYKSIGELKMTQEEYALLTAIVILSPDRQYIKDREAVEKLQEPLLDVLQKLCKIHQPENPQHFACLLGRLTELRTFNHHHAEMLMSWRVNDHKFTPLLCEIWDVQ
It counts as functional.

The target in assay [5] is T4, Retinoic acid receptor alpha (Homo sapiens, UniProt P10276).
T4 sequence (P10276 whole entry): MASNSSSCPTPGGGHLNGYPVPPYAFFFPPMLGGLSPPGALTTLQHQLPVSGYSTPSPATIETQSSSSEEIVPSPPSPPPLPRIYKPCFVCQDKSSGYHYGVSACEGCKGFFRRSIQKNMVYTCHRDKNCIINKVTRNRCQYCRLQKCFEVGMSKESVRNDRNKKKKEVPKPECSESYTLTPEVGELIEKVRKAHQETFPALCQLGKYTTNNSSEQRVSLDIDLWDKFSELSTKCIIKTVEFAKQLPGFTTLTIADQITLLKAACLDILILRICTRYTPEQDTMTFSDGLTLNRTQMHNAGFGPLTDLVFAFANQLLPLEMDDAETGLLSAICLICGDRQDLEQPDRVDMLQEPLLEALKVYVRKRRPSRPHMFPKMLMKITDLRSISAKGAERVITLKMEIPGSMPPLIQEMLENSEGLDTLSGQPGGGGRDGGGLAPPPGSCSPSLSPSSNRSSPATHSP
It counts as functional, cell-based.

In assay [6] the target is T5, Oxysterols receptor LXR-beta (Homo sapiens, UniProt P55055).
T5 sequence (P55055 whole entry): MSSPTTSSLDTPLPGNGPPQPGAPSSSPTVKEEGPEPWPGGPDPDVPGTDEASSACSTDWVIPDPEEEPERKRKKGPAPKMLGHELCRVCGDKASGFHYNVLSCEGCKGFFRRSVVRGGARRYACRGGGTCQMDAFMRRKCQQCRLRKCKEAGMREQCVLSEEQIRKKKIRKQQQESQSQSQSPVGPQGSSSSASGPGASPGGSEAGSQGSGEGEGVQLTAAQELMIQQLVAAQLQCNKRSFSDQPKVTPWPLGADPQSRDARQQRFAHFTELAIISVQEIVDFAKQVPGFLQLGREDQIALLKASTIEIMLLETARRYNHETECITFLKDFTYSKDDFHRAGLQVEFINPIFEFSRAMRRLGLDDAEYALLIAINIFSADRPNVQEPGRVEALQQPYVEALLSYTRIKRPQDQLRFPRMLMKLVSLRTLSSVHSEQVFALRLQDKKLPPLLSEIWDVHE
In kind it is functional.

The target in assay [7] is T3, Bile acid receptor. It counts as functional. This is another data set of the same source.
The target in the next assay is Substance-P receptor (Homo sapiens, UniProt P25103).
Substance-P receptor, sequence (P25103 whole entry): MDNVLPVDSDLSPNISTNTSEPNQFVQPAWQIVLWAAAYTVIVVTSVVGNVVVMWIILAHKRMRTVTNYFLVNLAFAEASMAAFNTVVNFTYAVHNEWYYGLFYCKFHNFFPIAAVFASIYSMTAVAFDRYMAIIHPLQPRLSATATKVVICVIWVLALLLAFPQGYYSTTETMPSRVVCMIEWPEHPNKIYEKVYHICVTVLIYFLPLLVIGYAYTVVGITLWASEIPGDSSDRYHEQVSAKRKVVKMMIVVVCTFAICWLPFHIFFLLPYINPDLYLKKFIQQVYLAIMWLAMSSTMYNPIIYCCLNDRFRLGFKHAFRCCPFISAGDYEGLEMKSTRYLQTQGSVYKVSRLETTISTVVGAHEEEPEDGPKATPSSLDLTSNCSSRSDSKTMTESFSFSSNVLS
Assay [8] concerns the target 5-hydroxytryptamine receptor 6 (Homo sapiens, UniProt P50406).
Assay [9] deals with Gamma-aminobutyric acid type B receptor subunit 1 (Homo sapiens, UniProt Q9UBS5).
Gamma-aminobutyric acid type B receptor subunit 1, sequence (Q9UBS5 whole entry): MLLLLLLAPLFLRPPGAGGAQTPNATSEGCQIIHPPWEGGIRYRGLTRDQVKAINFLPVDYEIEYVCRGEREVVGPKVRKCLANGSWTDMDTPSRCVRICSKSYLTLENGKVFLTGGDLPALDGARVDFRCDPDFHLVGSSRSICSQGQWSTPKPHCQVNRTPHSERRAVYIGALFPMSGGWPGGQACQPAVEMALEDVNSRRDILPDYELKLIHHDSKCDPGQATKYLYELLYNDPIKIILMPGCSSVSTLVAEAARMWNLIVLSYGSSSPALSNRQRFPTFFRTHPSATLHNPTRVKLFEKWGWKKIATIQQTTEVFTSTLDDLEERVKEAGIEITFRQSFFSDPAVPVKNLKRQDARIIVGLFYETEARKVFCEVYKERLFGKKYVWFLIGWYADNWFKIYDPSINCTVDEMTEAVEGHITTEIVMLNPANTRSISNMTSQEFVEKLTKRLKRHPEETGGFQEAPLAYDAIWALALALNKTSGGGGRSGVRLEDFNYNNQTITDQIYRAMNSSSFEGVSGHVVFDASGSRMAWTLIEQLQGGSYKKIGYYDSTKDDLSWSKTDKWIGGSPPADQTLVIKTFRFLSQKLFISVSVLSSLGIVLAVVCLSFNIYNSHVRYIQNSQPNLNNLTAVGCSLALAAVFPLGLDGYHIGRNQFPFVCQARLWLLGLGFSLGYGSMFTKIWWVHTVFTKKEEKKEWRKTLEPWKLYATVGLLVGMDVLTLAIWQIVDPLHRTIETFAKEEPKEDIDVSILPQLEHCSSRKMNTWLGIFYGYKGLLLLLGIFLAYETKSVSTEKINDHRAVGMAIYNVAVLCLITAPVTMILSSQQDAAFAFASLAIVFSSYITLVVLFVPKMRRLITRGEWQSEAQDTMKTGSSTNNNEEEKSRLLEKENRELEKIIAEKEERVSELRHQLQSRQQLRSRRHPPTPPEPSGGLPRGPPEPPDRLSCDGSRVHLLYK
Assay [10] deals with 5-hydroxytryptamine receptor 5A (Homo sapiens, UniProt P47898).
5-hydroxytryptamine receptor 5A, sequence (P47898 whole entry): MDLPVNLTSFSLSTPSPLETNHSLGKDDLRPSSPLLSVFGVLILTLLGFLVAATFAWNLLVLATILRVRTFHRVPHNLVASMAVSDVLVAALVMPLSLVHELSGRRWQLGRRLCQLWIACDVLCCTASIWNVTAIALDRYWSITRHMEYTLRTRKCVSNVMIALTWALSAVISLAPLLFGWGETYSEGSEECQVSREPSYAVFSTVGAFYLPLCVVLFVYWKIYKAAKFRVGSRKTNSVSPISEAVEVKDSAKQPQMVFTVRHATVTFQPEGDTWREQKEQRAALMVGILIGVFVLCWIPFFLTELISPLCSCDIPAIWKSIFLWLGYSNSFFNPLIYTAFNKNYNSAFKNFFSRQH
The target of assay [11] is 5-hydroxytryptamine receptor 2A (Homo sapiens, UniProt P28223).
5-hydroxytryptamine receptor 2A, sequence (P28223 whole entry): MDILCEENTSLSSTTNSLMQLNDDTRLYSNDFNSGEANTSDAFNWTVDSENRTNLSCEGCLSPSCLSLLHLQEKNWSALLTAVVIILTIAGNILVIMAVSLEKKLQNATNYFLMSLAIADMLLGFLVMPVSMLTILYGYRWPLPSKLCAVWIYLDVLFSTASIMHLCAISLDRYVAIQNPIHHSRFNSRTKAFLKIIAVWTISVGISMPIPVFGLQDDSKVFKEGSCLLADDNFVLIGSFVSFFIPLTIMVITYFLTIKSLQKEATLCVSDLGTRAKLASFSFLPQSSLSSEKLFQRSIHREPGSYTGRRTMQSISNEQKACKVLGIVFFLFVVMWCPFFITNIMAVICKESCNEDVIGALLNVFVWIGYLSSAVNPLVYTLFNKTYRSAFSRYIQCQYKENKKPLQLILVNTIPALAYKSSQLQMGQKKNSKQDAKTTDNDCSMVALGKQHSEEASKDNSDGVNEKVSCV
Assay [12] concerns the target Synaptic vesicular amine transporter (Rattus norvegicus, UniProt Q01827). In kind it is functional.

Structures are written as SMILES.
Further: assay procedure not described here.

Synaptic vesicular amine transporter, sequence (Q01827 whole entry): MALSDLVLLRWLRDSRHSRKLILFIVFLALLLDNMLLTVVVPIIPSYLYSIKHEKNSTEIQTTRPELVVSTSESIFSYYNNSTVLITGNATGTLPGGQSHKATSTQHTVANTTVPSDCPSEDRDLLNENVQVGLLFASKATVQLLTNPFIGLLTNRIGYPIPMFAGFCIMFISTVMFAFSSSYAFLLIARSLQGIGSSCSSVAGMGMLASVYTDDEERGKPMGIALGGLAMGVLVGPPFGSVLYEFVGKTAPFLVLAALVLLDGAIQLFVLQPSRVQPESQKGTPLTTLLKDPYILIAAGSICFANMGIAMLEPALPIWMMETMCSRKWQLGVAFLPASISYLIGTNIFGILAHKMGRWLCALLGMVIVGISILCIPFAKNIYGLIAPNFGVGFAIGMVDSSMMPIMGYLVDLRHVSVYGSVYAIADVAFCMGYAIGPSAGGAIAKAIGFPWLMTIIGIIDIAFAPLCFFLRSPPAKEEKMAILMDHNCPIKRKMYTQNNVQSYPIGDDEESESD
D(1A) dopamine receptor, sequence (P21728 whole entry): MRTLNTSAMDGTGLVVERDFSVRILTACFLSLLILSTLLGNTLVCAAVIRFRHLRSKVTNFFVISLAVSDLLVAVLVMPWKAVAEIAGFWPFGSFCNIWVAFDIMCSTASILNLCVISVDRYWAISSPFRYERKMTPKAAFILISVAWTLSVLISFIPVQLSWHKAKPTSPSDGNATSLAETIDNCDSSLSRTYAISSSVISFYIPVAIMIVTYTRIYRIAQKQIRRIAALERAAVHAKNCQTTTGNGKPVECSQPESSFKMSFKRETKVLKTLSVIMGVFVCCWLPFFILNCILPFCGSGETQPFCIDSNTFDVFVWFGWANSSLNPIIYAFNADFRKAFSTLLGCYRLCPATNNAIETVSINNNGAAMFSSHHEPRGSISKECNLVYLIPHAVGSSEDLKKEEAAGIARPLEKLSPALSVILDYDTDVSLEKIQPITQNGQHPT
5-hydroxytryptamine receptor 6, sequence (P50406 whole entry): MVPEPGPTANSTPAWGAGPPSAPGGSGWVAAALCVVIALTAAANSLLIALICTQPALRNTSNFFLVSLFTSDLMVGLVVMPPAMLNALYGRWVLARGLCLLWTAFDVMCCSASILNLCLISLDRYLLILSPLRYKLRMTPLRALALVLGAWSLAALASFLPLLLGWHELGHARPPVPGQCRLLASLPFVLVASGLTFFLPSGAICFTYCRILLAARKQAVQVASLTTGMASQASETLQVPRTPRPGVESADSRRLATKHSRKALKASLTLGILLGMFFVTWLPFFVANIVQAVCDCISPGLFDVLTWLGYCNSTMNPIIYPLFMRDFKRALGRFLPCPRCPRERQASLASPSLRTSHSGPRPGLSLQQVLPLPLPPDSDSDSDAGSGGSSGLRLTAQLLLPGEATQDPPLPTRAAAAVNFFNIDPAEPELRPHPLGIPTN

Turning to `O=C(Nc1cccc2c(=O)cc(-c3nnn[nH]3)oc12)c1ccc(OCCCCc2ccccc2)cc1`, on D(1A) dopamine receptor, the concentration at half-maximal activity (AC50) (commonly the midpoint of the concentration-response curve, whichever way the signal moves) was found to be 2.88 µM.
Regarding `CC(=N)N1CC[C@H](SC2=C(C(=O)O)N3C(=O)[C@H]([C@@H](C)O)[C@H]3C2)C1`, the half-maximal activity concentration (AC50) on Thromboxane A2 receptor [1] and on Thromboxane A2 receptor [2] was over 300 µM in each case.
In the case of `CC(/C=C1\SC(=S)N(CC(=O)O)C1=O)=C\c1ccccc1`, the AC50 (in assay [3]; on Bile acid receptor [4]; in assay [5]; in assay [6]; at Bile acid receptor [7]) was over 30 µM throughout.
As for `CC1(C)S[C@@H]2[C@H](NC(=O)[C@H](N)c3ccc(O)cc3)C(=O)N2[C@H]1C(=O)O` [AMOXICILLIN], the AC50 is over 10 µM on Substance-P receptor; over 30 µM in assay [3]; over 30 µM on Bile acid receptor [4]; over 30 µM in assay [5]; over 10 µM in assay [8]; 4.1 µM in assay [6]. The AC50 in [9] was over 10 µM; at Bile acid receptor [7] it was over 30 µM; in assay [10], over 10 µM.
Consider `O=C1CN2Cc3c(ccc(Cl)c3Cl)N=C2N1` [ANAGRELIDE], for which the AC50 in [11] was over 10 µM.
For `Cc1ccc([C@@H]2O[C@H](CO)[C@@H](O)[C@H](O)[C@H]2O)cc1Cc1ccc(-c2ccc(F)cc2)s1` [CANAGLIFLOZIN ANHYDROUS], the AC50 in assay [12] was 20 µM.
Regarding `Clc1cccc(Cl)c1N=C1NCCN1` [CLONIDINE], on Substance-P receptor, the AC50 is over 10 µM.
`COC(=O)[C@H](c1ccccc1Cl)N1CCc2sccc2C1` [CLOPIDOGREL]: the AC50 (on Substance-P receptor; in assay [8]; in [10]) was over 10 µM each time.
For the compound `CNCC[C@H](Oc1cccc2ccccc12)c1cccs1` [DULOXETINE], the half-maximal activity concentration (AC50) in [12] amounted to 1.4 µM.
Regarding `C#Cc1cccc(Nc2ncnc3cc(OCCOC)c(OCCOC)cc23)c1` [ERLOTINIB], the AC50 at Thromboxane A2 receptor [1] and on Thromboxane A2 receptor [2] was over 30 µM each time.
On to `CCC(=O)O[C@@H](O[P@](=O)(CCCCc1ccccc1)CC(=O)N1C[C@H](C2CCCCC2)C[C@H]1C(=O)O)C(C)C` [FOSINOPRIL], for which, on D(1A) dopamine receptor, the half-maximal activity concentration (AC50) was found to be 21.6 µM.
Consider `C[C@H]1Oc2cc(cnc2N)-c2c(nn(C)c2C#N)CN(C)C(=O)c2ccc(F)cc21` [LORLATINIB], for which the AC50 at Thromboxane A2 receptor [1] and at Thromboxane A2 receptor [2] was over 30 µM each time.
With `Cc1cnc(NC(=O)C2=C(O)c3ccccc3S(=O)(=O)N2C)s1` [MELOXICAM], the AC50 (at Substance-P receptor; in assay [8]; in assay [9]; in assay [10]) was over 10 µM throughout.
The compound `CNCCC=C1c2ccccc2CCc2ccccc21` [NORTRIPTYLINE] yielded a half-maximal activity concentration (AC50) in assay [8] of 0.256 µM. This lies in the sub-micromolar range.
The compound `CN(C)c1cc(CNCC(C)(C)C)c(O)c2c1C[C@H]1C[C@H]3[C@H](N(C)C)C(O)=C(C(N)=O)C(=O)[C@@]3(O)C(O)=C1C2=O` [OMADACYCLINE] came in with a half-maximal activity concentration (AC50) at D(1A) dopamine receptor of over 30 µM.
In the case of `COc1ccnc(C[S+]([O-])c2nc3ccc(OC(F)F)cc3[nH]2)c1OC` (stereo not given) [PANTOPRAZOLE], the concentration at half-maximal activity (AC50) at Substance-P receptor was over 10 µM.
Turning to `CNC[C@H](O)c1cccc(O)c1` [PHENYLEPHRINE], the AC50 (at Substance-P receptor; in assay [8]; in assay [9]; in assay [11]) was over 10 µM throughout.
As to `O=C1NC(=O)C(c2ccccc2)(c2ccccc2)N1` [PHENYTOIN], the AC50 on Thromboxane A2 receptor [1] and on Thromboxane A2 receptor [2] was over 30 µM each time.
Compound `CC(C)COc1ccc(CNC(=O)N(Cc2ccc(F)cc2)C2CCN(C)CC2)cc1` [PIMAVANSERIN] registered an AC50 in [12] of 3.1 µM.
With `CC(C)C[C@H](CN)CC(=O)O` [PREGABALIN], the concentration at half-maximal activity (AC50) in assay [11] was over 10 µM.
In the case of `CNC(=O)c1cc(Oc2ccc(NC(=O)Nc3ccc(Cl)c(C(F)(F)F)c3)c(F)c2)ccn1` [REGORAFENIB], the half-maximal activity concentration (AC50) in [3] is over 30 µM; at Bile acid receptor [4], over 30 µM; in assay [5] it was over 30 µM; in assay [6], over 30 µM; at Bile acid receptor [7], over 30 µM; on D(1A) dopamine receptor, 4.15 µM.
For the compound `CCOc1cc(CC(=O)N[C@@H](CC(C)C)c2ccccc2N2CCCCC2)ccc1C(=O)O` [REPAGLINIDE], the AC50 (in assay [3]; on Bile acid receptor [4]; in assay [5]; in assay [6]; on Bile acid receptor [7]) was over 30 µM throughout.
`NC(=O)c1ncn([C@@H]2O[C@H](CO)[C@@H](O)[C@H]2O)n1` [RIBAVIRIN] returned a concentration at half-maximal activity (AC50) in [12] of over 30 µM.
`O=C(Nc1c(Cl)cncc1Cl)c1ccc(OC(F)F)c(OCC2CC2)c1` [ROFLUMILAST] came in with a concentration at half-maximal activity (AC50) in assay [12] of 12.1 µM.
`CCCN(CCC)CCc1cccc2c1CC(=O)N2` [ROPINIROLE]: the AC50 was over 30 µM at Thromboxane A2 receptor [1], over 30 µM at Thromboxane A2 receptor [2] and over 10 µM in [11].
Regarding `CCCN(CCc1cccs1)[C@H]1CCc2c(O)cccc2C1` [ROTIGOTINE], the AC50 at Thromboxane A2 receptor [1] and at Thromboxane A2 receptor [2] was over 30 µM in each case.
Take `CC(C)N(CCCCOCC(=O)NS(C)(=O)=O)c1cnc(-c2ccccc2)c(-c2ccccc2)n1` [SELEXIPAG]: the AC50 in assay [12] was over 30 µM.
As to `CC(=O)S[C@@H]1CC2=CC(=O)CC[C@]2(C)[C@H]2CC[C@@]3(C)[C@@H](CC[C@@]34CCC(=O)O4)[C@H]12` [SPIRONOLACTONE], on Substance-P receptor, the AC50 is over 10 µM.
As for `NC(=O)NS(=O)(=O)c1ccc(N)cc1` [SULFACARBAMIDE], the AC50 in assay [12] is over 30 µM.
The same measure, in the same setting: next, `CCCCCCCCNC(C)C(O)c1ccc(SC(C)C)cc1` (stereo not given) [SULOCTIDIL]: 0.0013 µM.
Turning to `CCCCNc1ccc(C(=O)OCCN(C)C)cc1` [TETRACAINE], the AC50 (at Substance-P receptor; in assay [8]; in [9]; in assay [10]) was over 10 µM in each case.
On D(1A) dopamine receptor, `CN1CCN(CCCN2c3ccccc3Sc3ccc(S(=O)(=O)N(C)C)cc32)CC1` [THIOPROPERAZINE] returned an AC50 of over 30 µM.
For the compound `CC1(C)O[C@@H]2[C@@H](CO[C@@]3(COS(N)(=O)=O)OC(C)(C)O[C@@H]23)O1` [TOPIRAMATE], the AC50 (at Substance-P receptor; in assay [8]; in [9]; in [11]) was over 10 µM in each case.
